The subject of this test is Streptozotocin-injected male Wistar rats. In words: Glycemia over 24 days in streptozotocin (60 mg/kg) rats given betaine in drinking water (Example 4). Type of test: in vivo, rat. The conditions noted are these: 200 mg/kg/day in drinking water, STZ 60 mg/kg rats, FIG. 4. As for the experimental part:
Male Wistar rats (+250 g) after 1 week stabulation are injected Streptozotocin 60 mg/kg intraperitoneally. Animals (n=8/group) were fed with normal chow and water ad libitum during 5 days, then at day 1 (T0) Betaine (200 mg/kg/day) or placebo were dissolved and administrated daily in drinking water during 24 days; full access to normal chow was maintained during the whole experiments. Glycemia was measured morning at days of experiments, in non-fastened rats (as in previous exp.). At T0+7 days the treatments were inverted between the 2 groups.

For the compound `C[N+](C)(C)CC(=O)O` [glycine betaine], the “effect on the regulation of blood glucose” value is reported as “per se possesses an effect on the regulation of blood glucose”.
